Reference: patent publication US11767353B2, “Trail compositions with reduced immunogenicity” (Theraly Fibrosis, Inc., priority 2020, dated 2023)
pIC50: −log10 of the molar value.

System: COLO 205 cells
Assay: Cell viability bioassay (CELL TITER-GLO) on COLO 205 cells
Type: cell-based, Human
Conditions: colorectal cancer cells COLO-205; read-out: potency in cell viability bioassay
Excerpt: TLY012 is a PEGylated form of rhTRAIL, genetically fused to a humanized coiled-coil isoleucine “zipper” (miLZ) at the N-terminus. It is a DR4/DR5 receptor agonist and as such is known to induce apoptosis in Human colon adenocarcinoma cells COLO 205 resulting in inhibition of cell proliferation. CELL TITER-GLO™ (Promega, WI) was used to measure luminescence in conventional luciferase assay system. This assay is a homogeneous method to determine the number of metabolically active cells based on quantitation of the ATP present. […]
Assay Procedure. […] The 96-well plates were placed into a 37±1.0° C.; 5±0.5% CO2; ≥85% relative humidity cell culture incubator in a single layer and incubated for 1±0.5 hours until cells are ready. […] As a result, inhibition of cell proliferation is measured by adding the CELL TITER-GLO™ solution to the cells, the lysed cells release ATP. […]
The growth medium was RPMI1640 with 10% FBS, glutamine, penicillin/streptomycin solution. […] Cell suspension was transferred to the white 96-well plates and luminescence was measured by BIOTEK plate reader.
Data were analyzed using BioTek Gen5secure software. The dose response curves were generated using the four-parameter fit logistic model and the IC50 values for reference standard and test samples were calculated. Potency of the test sample is expressed as the ratio of the IC50 values of the test and reference standard samples. […]

## TLY012: PEGylated (5 kDa PEG-aldehyde) recombinant human TRAIL (114-281) fused to modified isoleucine zipper (miLZ) at N-terminus; SEQ ID NO:30 trimer
  pIC50: 10.81
